Laboratory results from article PMC9329436, “Optimization of the 4-anilinoquin(az)oline scaffold as epidermal growth factor receptor (EGFR) inhibitors for chordoma utilizing a toxicology profiling assay platform” (Scientific Reports, 2022).

Assays:
[1] = tested on: CH22 patient-derived chordoma cell line; experiment: Cell viability assay (alamarBlue, 72 h), CH22; type: cell-based, human; conditions: n = 4, 72 h
In short: (§1)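 Patient-derived chordoma lines and WS1 fibroblasts seeded in 384-well plates, dosed in quadruplicate 24 h after plating.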

HL60 cells = experiment: AsedaSciences SYSTEMETRIC Cell Health Screen (flow cytometry toxicity profiling); conditions: HL60, 4 h, 5 nM–100 µM; for CC: Cell Cycle score / CM: Cell morphology score / CMI: Cell membrane integrity score / GSH: Glutathione score / MMP: Mitochondrial membrane depolarization score / NMI1: Nuclear membrane integrity 1 score / NMI2: Nuclear membrane integrity 2 score / ROS: Reactive superoxide species score: probability 0–1, n = 2; for CHI: Cell Health Index: probability (0–1) of high-risk class, n = 2
In short: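 HL60 cells (100,000 per well) exposed 4 h at 37 °C, 5% CO2 to 10-step 3× dilutions (5 nM–100 µM), in duplicate. Cells then stained with mitochondrial and cell-stress reporter dyes and read by ungated flow cytometry over twelve parameters. Cell Health Index and eight endpoint scores come from an ML classifier trained on 300 high/low-risk compounds.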

[2] = tested on: U-CH12 patient-derived chordoma cell line; experiment: Cell viability assay (alamarBlue, 72 h), U-CH12; type: cell-based, human; conditions: n = 4, 72 h
In short: as §1

MKNK2 = MKNK2 (Homo sapiens, UniProt Q9HBH9); experiment: 33PanQinase activity assay; type: biochemical; conditions: for Residual activity: singlicate
Sequence of MKNK2 (Q9HBH9 whole entry): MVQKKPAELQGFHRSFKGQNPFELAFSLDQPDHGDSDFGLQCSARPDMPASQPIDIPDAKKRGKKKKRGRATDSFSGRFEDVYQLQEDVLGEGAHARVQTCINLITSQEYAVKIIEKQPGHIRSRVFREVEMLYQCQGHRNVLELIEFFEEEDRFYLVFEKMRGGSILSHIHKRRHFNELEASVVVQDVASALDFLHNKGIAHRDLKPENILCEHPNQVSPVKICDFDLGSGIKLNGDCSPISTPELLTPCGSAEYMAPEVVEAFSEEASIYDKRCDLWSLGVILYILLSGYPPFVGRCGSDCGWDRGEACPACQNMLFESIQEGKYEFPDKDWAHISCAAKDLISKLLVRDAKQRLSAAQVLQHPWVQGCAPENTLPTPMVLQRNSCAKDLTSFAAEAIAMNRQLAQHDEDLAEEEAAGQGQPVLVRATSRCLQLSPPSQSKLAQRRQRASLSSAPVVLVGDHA
Description: (§2) Table S4. Profiling of two compounds at two concentrations against 320 wild-type protein kinases; singlicate measurement; Residual activities (% of control).

SLK = SLK (Homo sapiens, UniProt Q9H2G2); experiment: 33PanQinase activity assay; type: biochemical; conditions: for SLK inhibition: 10 μM; for Residual activity, SLK: kinase SLK, singlicate
Sequence of SLK (Q9H2G2 whole entry): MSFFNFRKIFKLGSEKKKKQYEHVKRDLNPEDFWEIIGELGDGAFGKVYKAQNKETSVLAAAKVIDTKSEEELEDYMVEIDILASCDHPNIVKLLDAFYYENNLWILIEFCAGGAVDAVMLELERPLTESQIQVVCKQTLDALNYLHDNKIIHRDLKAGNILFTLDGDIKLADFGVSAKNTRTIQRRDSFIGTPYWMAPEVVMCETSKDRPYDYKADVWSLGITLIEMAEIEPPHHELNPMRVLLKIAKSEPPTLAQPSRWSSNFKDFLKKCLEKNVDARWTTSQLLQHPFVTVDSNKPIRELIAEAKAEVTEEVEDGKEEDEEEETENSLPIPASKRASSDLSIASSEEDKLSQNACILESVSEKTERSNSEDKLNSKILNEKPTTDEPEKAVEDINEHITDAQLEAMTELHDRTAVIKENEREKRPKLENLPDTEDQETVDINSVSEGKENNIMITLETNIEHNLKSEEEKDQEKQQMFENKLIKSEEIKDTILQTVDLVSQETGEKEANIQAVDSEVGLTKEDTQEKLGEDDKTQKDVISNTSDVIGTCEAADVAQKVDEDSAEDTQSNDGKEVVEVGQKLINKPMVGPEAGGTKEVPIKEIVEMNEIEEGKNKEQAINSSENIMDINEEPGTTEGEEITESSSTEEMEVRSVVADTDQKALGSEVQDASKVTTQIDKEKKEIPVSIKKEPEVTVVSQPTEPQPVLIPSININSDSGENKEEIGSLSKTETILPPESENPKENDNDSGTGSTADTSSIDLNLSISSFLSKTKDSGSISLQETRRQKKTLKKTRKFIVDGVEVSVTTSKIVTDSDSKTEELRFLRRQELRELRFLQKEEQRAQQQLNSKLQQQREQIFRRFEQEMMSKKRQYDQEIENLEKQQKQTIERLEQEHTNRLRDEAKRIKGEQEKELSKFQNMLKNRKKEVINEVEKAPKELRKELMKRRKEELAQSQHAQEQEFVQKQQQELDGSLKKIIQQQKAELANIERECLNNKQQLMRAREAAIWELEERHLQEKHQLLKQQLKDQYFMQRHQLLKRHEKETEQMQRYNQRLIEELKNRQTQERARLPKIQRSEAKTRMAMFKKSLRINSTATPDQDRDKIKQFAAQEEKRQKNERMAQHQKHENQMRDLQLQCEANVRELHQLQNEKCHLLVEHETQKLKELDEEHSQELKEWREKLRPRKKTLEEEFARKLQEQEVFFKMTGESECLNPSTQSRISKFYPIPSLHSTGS
Description: as §2

NIK = NIK (Homo sapiens, UniProt Q99558); experiment: 33PanQinase activity assay; type: biochemical; conditions: for Residual activity: NIK, singlicate
Sequence of NIK (Q99558 whole entry): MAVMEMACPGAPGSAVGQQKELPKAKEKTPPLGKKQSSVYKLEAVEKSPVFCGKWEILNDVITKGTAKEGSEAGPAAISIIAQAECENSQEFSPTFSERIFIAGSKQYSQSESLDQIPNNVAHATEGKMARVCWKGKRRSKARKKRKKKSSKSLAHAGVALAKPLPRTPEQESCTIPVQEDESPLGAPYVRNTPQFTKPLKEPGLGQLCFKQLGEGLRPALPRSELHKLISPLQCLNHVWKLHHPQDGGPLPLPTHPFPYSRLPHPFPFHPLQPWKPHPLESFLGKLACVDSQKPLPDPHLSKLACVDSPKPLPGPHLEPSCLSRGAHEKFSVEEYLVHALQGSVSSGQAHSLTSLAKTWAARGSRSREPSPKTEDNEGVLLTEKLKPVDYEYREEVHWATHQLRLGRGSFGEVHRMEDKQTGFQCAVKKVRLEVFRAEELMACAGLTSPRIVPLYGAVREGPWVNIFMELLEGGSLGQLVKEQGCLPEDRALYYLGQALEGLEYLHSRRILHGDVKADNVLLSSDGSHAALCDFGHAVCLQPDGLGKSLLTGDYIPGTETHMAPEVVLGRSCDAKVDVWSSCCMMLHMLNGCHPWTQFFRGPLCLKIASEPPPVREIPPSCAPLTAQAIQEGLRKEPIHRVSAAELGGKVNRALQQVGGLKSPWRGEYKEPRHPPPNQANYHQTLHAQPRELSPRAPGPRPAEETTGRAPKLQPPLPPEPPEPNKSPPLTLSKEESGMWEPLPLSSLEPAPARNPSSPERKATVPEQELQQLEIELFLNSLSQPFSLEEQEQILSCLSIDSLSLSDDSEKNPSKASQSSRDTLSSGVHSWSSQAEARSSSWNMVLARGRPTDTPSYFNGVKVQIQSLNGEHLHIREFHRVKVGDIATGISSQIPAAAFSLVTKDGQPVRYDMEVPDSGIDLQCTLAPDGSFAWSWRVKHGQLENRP
Description: as §2

Aurora-B = Aurora-B (Homo sapiens, UniProt Q96GD4); experiment: 33PanQinase activity assay; type: biochemical; conditions: for Residual activity: Aurora-B, singlicate
Sequence of Aurora-B (Q96GD4 whole entry): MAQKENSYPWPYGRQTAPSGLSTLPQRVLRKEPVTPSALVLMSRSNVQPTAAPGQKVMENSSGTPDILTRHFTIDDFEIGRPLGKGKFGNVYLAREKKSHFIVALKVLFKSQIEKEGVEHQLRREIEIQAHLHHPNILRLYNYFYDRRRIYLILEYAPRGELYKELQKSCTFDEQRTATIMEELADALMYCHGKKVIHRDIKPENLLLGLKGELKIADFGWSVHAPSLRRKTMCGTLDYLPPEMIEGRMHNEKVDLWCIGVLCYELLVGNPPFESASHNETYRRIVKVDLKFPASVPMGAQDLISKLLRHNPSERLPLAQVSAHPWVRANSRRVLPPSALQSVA
Description: as §2

MINK1 = MINK1 (Homo sapiens, UniProt Q8N4C8); experiment: 33PanQinase activity assay; type: biochemical; conditions: for Residual activity: singlicate
Sequence of MINK1 (Q8N4C8 whole entry): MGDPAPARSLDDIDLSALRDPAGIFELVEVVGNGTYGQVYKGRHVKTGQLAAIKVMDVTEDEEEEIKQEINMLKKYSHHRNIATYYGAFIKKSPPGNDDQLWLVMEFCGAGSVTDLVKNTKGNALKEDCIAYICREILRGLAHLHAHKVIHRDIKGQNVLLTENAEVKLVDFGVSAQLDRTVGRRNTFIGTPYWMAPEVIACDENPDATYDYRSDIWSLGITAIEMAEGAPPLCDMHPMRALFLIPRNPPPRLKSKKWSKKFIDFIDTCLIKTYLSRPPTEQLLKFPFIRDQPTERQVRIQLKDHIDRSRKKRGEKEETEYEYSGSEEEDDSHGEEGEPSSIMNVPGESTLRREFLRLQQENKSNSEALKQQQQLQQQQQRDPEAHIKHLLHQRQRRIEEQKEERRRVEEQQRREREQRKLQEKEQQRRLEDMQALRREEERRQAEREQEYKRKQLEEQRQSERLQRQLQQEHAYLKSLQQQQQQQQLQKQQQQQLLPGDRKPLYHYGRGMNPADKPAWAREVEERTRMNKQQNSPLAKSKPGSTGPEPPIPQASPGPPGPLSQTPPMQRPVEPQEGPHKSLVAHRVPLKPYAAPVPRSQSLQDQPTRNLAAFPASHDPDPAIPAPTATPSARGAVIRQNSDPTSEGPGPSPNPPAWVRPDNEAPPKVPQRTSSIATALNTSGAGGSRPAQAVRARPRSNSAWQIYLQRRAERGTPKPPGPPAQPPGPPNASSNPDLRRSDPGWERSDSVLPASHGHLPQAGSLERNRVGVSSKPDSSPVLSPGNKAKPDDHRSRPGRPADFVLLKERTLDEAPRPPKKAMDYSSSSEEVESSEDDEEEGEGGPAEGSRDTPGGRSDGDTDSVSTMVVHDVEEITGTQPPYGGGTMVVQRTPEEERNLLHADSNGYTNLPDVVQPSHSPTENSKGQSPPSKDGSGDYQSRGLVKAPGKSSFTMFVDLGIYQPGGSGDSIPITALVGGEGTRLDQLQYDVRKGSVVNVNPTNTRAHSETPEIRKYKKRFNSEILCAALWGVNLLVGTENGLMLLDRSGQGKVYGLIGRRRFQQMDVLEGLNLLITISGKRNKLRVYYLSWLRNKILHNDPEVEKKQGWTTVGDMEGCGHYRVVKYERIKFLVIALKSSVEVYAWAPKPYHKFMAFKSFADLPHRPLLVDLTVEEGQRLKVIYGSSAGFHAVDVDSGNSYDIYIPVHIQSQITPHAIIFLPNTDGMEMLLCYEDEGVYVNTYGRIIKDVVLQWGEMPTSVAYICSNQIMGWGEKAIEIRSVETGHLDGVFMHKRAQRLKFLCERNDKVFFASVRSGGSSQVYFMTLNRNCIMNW
Description: as §2

EGFR [3] = molecular target: T1, EGFR (Homo sapiens, UniProt P00533); experiment: 33PanQinase activity assay; type: biochemical; conditions: for Residual activity: EGF-R, singlicate
Description: as §2

EGFR [4] = molecular target: T1, EGFR; experiment: ProQinase in-cell EGFR assay (EGFR phosphorylation in A431 cells); type: cell-based; set-up: This cell line endogenously expresses a high level of EGFR; endogenous in cells; host or cells: A431
Description: In addition, we ran an EGFR in-cell target engagement assay, measuring in-cell EGFR phosphorylation, using the human epidermoid carcinoma cell line A431. This cell line endogenously expresses a high level of EGFR, and stimulation of these cells with human epidermal growth factor (EGF) results in receptor tyrosine autophosphorylation.

[5] = tested on: U-CH7 patient-derived chordoma cell line; experiment: Cell viability assay (alamarBlue, 72 h), U-CH7; type: cell-based, human; conditions: n = 4, 72 h
In short: as §1

[6] = tested on: WS1 human fibroblast cell line; experiment: Cell viability assay, WS1 toxicity control; type: cell-based; conditions: n = 4, nonspecific toxicity control
In short: as §1

[7] = tested on: UM-Chor1 patient-derived chordoma cell line; experiment: Cell viability assay (alamarBlue, 72 h), UM-Chor1; type: cell-based, human; conditions: n = 4, 72 h
In short: as §1

[8] = ProQinase in-cell EGFR assay, A431 cells, n = 1

SMILES	IC50 [1] [µM]	CC: Cell Cycle score (HL60 cells)	CM: Cell morphology score (HL60 cells)	CMI: Cell membrane integrity score (HL60 cells)	GSH: Glutathione score (HL60 cells)	MMP: Mitochondrial membrane depolarization score (HL60 cells)	NMI1: Nuclear membrane integrity 1 score (HL60 cells)	NMI2: Nuclear membrane integrity 2 score (HL60 cells)	ROS: Reactive superoxide species score (HL60 cells)	CHI: Cell Health Index (HL60 cells)	IC50 [2] [µM]	Residual activity (MKNK2; MKNK2, 1.0E-06 M)	Residual activity (MKNK2; MKNK2, 1.0E-07 M)	SLK inhibition (SLK) [%]	Residual activity, SLK (SLK; assay conc. 1.0E-06 M)	Residual activity, SLK (SLK; assay conc. 1.0E-07 M)	Residual activity (NIK; 1.0E-06 M)	Residual activity (NIK; 1.0E-07 M)	Residual activity (Aurora-B; 1.0E-06 M)	Residual activity (Aurora-B; 1.0E-07 M)	also measured
C#Cc1cc(Nc2ncnc3cc(OC)c(OC)cc23)ccc1Cl [Compound 45]	1.2	0.10	1.00	0.51	0.079	0.48	0.60	0.40	0.77	0.60	3	46 % of control	78 % of control	> 50	18 % of control	76 % of control	122 % of control	127 % of control	43 % of control	91 % of control	MKNK2 inhibition (MKNK2; 10 μM): > 50%; NIK inhibition (NIK; 10 μM): > 50%; MINK1 inhibition (MINK1; 10 μM): > 50%; Residual activity (MINK1; MINK1, 1.0E-06 M): 29 % of control; Residual activity (MINK1; MINK1, 1.0E-07 M): 86 % of control; EGFR inhibition (EGFR [3]; 1 μM): > 50%; EGFR inhibition (EGFR [3]; 10 μM): > 50%; Residual activity (EGFR [3]; 1.0E-06 M): 0 % of control; Residual activity (EGFR [3]; 1.0E-07 M): 2 % of control; IC50 (EGFR [4]; [8]): 0.018 µM; IC50 (EGFR [4]; in-cell EGFR inhibition): < 0.1 µM; IC50 [5]: 74 µM; IC50 [6]: > 100 µM; IC50 [7]: 60 µM
C#Cc1cc(Nc2ncnc3cc(I)ccc23)ccc1Cl [Compound 41]	0.48	0.91	1.00	1.00	0.99	1.00	1.00	1.00	0.99	0.88	0.96	74 % of control	92 % of control	> 50	32 % of control	67 % of control	120 % of control	126 % of control	30 % of control	75 % of control	Aurora-B inhibition (Aurora-B; 10 μM): > 50%; Residual activity (MINK1; MINK1, 1.0E-06 M): 54 % of control; Residual activity (MINK1; MINK1, 1.0E-07 M): 64 % of control; EGFR inhibition (EGFR [3]; 1 μM): > 50%; EGFR inhibition (EGFR [3]; 10 μM): > 50%; Residual activity (EGFR [3]; 1.0E-06 M): 8 % of control; Residual activity (EGFR [3]; 1.0E-07 M): 28 % of control; IC50 (EGFR [4]; [8]): 3.7 µM; IC50 [5]: 8 µM; IC50 [6]: 36 µM; IC50 [7]: 25 µM
